In one assay the target is T1, Sterol O-acyltransferase 1 (Rattus norvegicus, UniProt O70536).
T1 sequence (O70536 whole entry): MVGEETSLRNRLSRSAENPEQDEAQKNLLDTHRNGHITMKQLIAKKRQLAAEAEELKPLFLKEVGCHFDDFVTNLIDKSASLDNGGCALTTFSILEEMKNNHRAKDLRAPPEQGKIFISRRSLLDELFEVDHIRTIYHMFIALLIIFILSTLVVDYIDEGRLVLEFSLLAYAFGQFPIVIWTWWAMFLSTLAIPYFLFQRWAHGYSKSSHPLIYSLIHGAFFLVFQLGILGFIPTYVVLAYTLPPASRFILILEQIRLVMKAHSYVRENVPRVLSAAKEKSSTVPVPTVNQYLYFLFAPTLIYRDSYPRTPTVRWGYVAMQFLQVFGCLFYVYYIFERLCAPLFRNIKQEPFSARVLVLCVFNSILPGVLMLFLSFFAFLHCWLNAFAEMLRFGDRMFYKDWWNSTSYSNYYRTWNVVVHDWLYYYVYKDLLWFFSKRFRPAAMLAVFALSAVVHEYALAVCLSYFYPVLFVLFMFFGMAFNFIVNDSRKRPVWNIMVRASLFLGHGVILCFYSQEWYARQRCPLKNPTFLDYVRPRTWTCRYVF
Description: ChEBML_28484. How it is done:
(§1) Concentration required for the in vitro inhibition of Acyl coenzyme A:cholesterol acyltransferase (ACAT) in liver microsomes isolated from cholesterol-fed rats was determined
With `CCCCCCCCCCCCn1nnc(C(C(=O)Nc2c(OC)cc(OC)cc2OC)c2ccccc2)n1` (configuration not stated) [2-(2-Dodecyl-2H-tetrazol-5-yl)-2-phenyl-N-(2,4,6-trimethoxy-phenyl)-acetamide], the IC50 was found to be 14 nM.
`CCCCCCCCCCCCn1nnc(C(C(=O)Nc2c(C(C)C)cccc2C(C)C)c2ccccc2)n1` (configuration not stated) [N-(2,6-Diisopropyl-phenyl)-2-(2-dodecyl-2H-tetrazol-5-yl)-2-phenyl-acetamide] showed an IC50 of 10 nM.
`CCCCCCCC[C@@H](SCCCCCC)C(=O)Nc1c(SC)cc[n+](C)c1SC`: the IC50 is 22 nM.
As to `CCCCCCCCCCCCn1nnnc1C(C(=O)Nc1c(OC)cc(OC)cc1OC)c1ccccc1` (configuration not stated), the IC50 is 52 nM.
Consider `CCCCCCCCCCCCn1nnnc1C(C(=O)Nc1c(C(C)C)cccc1C(C)C)c1ccccc1` (configuration not stated), for which the IC50 worked out at 79 nM.
In turn, `CCCCCCCC[C@H](SCCCCCC)C(=O)Nc1c(SC)cc[n+](C)c1SC` gave an IC50 of 160 nM.

For a further assay, the target named is T1, Sterol O-acyltransferase 1. The assay is described as §1.
For `CCCCCCCCCCCCn1nnc(C(C(=O)Nc2c(OC)cc(OC)cc2OC)c2ccccc2)n1` (configuration not stated) [2-(2-Dodecyl-2H-tetrazol-5-yl)-2-phenyl-N-(2,4,6-trimethoxy-phenyl)-acetamide], the IC50 stood at 24 nM.

Usually IC50 stands for the concentration needed to halve the response being measured. A high value points to weaker potency.

For the origin of these results see BindingDB's records for doi:10.7270/Q29Z94WS (Warner-Lambert, 1995).
